Earlier results on 1 compound are cited in patent US20260209864A1, “METHOD FOR DETERMINING AND IMPROVING THE POTENTIAL EFFICACY OF ANTICANCER TREATMENT” (ASSISTANCE PUBLIQUE - HOPITAUX DE PARIS, priority 2022, published 2026).

The structures appear in SMILES notation.

The conditions of series [1]: after lung transplantation.
Series [2] deals with hematological malignancies. The following applies: early administration during allo-HSCT.

As to `CC[C@H]1OC(=O)[C@H](C)[C@@H](O[C@H]2C[C@@](C)(OC)[C@@H](O)[C@H](C)O2)[C@H](C)[C@@H](O[C@@H]2O[C@H](C)C[C@H](N(C)C)[C@H]2O)[C@](C)(O)C[C@@H](C)CN(C)[C@H](C)[C@@H](O)[C@]1(C)O` [azithromycin], the “prevention of BOS” value in series [1] is “prevents BOS”. In addition, the “risk of hematological malignancies relapses” value in series [2] is recorded as “unexpectedly increased risk”.
